Laboratory results taken from patent publication US4476298A, “Erythromycin A derivatives” (Taisho Pharmaceutical Co., Ltd., priority 1981, dated 1984).
Converted amounts (≈) assume the structure as drawn. Read-outs that look alike come from different tables or passages of the source.

Tests used:
Experiment in all cases: antibacterial activity (MIC), agar plate dilution method
Type in all cases: cell-based
Bacillus subtilis EM-R = conditions: for MIC: Bacillus subtilis, read-out: MIC value (minimal inhibitory concentration), Bacillus subtilis EM-R, strain resistant to erythromycin
Experimental: (§1) Erythromycin A was used as a control, and the compounds of formula I derived from Fractions A, B and C were tested for antibacterial activity against various bacteria by the agar plate dilution method.

Micrococcus luteus NIHJ = conditions: for MIC: read-out: MIC value (minimal inhibitory concentration)
Experimental: as §1

[1] = test system: Staphylococcus aureus FDA 209 P; conditions: for MIC: Staphylococcus aureus
Experimental: as §1

[2] = test system: Staphylococcus aureus TPR 13; conditions: for MIC: Staphylococcus aureus
Experimental: as §1

[3] = test system: Staphylococcus aureus TPR 23; conditions: for MIC value (minimal inhibitory concentration): Staphylococcus aureus TPR 23, strain resistant to erythromycin; for MIC: Staphylococcus aureus
Experimental: as §1

[4] = test system: Staphylococcus aureus TPR 25; conditions: for MIC: Staphylococcus aureus
Experimental: as §1

[5] = test system: Staphylococcus aureus smith; conditions: for MIC: Staphylococcus aureus, read-out: MIC value (minimal inhibitory concentration)
Experimental: as §1

[6] = test system: Staphylococcus epidermidis IID 866; conditions: for MIC: Staphylococcus epidermidis
Experimental: as §1

[7] = test system: Streptococcus faecalis ATCC 8043; conditions: for MIC: Enterococcus faecalis
Experimental: as §1

[8] = Micrococcus luteus NIHJ, agar plate dilution
[9] = FDA209, Staphylococcus aureus FDA 209 P, agar plate dilution, read-out: MIC value (minimal inhibitory concentration)
[10] = TPR13, Staphylococcus aureus TPR 13, strain resistant to erythromycin, agar plate dilution, read-out: MIC value (minimal inhibitory concentration)
[11] = TPR25, Staphylococcus aureus TPR 25, strain resistant to erythromycin, agar plate dilution, read-out: MIC value (minimal inhibitory concentration)
[12] = Staphylococcus aureus smith, agar plate dilution
[13] = IID866, Staphylococcus epidermidis IID 866, agar plate dilution, read-out: MIC value (minimal inhibitory concentration)
[14] = ATCC8043, Streptococcus faecalis ATCC 8043, agar plate dilution, read-out: MIC value (minimal inhibitory concentration)

| SMILES | MIC (Bacillus subtilis EM-R) [µg/mL] | MIC (Micrococcus luteus NIHJ; [8]) [µg/mL] | MIC [1, 9] [µg/mL] | MIC [2, 10] [µg/mL] | MIC value (minimal inhibitory concentration) ([3]; agar plate dilution) [µg/mL] | MIC [4, 11] [µg/mL] | MIC [5, 12] [µg/mL] | MIC [6, 13] [µg/mL] | MIC [7, 14] [µg/mL] | also measured |
| --- | --- | --- | --- | --- | --- | --- | --- | --- | --- | --- |
| CC[C@H]1OC(=O)[C@H](C)[C@@H](O[C@H]2C[C@@](C)(OC)[C@@H](OC)[C@H](C)O2)[C@H](C)[C@@H](O[C@@H]2O[C@H](C)C[C@H](N(C)C)[C@H]2O)[C@@]2(C)C[C@@H](C)C(OC)(O2)[C@H](C)[C@H]2OC(=O)O[C@@]21C (single isomer, unassigned) [A] | 0.4 (≈ 0.508 µM) | < 0.05 | ≤ 0.05 | 1.6 (≈ 2.03 µM) | 3.1 (≈ 3.93 µM) | 1.6 (≈ 2.03 µM) | 0.4 (≈ 0.508 µM) | 0.4 (≈ 0.508 µM) | ≤ 0.05 |  |
| CC[C@H]1OC(=O)[C@H](C)[C@@H](O[C@H]2C[C@@](C)(OC)[C@@H](OC)[C@H](C)O2)[C@H](C)[C@@H](O[C@@H]2O[C@H](C)C[C@H](N(C)C)[C@H]2O)[C@@]2(C)C[C@@H](C)C(OC)(O2)[C@H](C)[C@H]2OC(=O)O[C@@]21C (single isomer, unassigned) [B] |  |  |  |  | 6.25 (≈ 7.93 µM) |  |  |  |  | MIC value (minimal inhibitory concentration) (Bacillus subtilis EM-R; Bacillus subtilis EM-R, strain resistant to erythromycin): 0.8 µg/mL (≈ 1.02 µM); MIC value (minimal inhibitory concentration) (Micrococcus luteus NIHJ; [8]): < 0.05 µg/mL; MIC value (minimal inhibitory concentration) ([1]; Staphylococcus aureus FDA 209 P, agar plate dilution): 0.1 µg/mL (≈ 0.127 µM); MIC value (minimal inhibitory concentration) ([2]; Staphylococcus aureus TPR 13, strain resistant to erythromycin, agar plate dilution): 3.1 µg/mL (≈ 3.93 µM); MIC value (minimal inhibitory concentration) ([4]; Staphylococcus aureus TPR 25, strain resistant to erythromycin, agar plate dilution): 3.1 µg/mL (≈ 3.93 µM); MIC value (minimal inhibitory concentration) [5, 12]: 0.8 µg/mL (≈ 1.02 µM); MIC value (minimal inhibitory concentration) ([6]; Staphylococcus epidermidis IID 866, agar plate dilution): 0.8 µg/mL (≈ 1.02 µM); MIC value (minimal inhibitory concentration) ([7]; Streptococcus faecalis ATCC 8043, agar plate dilution): 0.1 µg/mL (≈ 0.127 µM) |
| CC[C@H]1OC(=O)[C@H](C)[C@@H](O[C@H]2C[C@@](C)(OC)[C@@H](OC)[C@H](C)O2)[C@H](C)[C@@H](O[C@@H]2O[C@H](C)C[C@H](N(C)C)[C@H]2O)[C@@]2(C)C[C@@H](C)C(O)(O2)[C@H](C)[C@H]2OC(=O)O[C@@]21C (single isomer, unassigned) [C] | 0.4 (≈ 0.517 µM) | < 0.05 | ≤ 0.05 | 0.8 (≈ 1.03 µM) |  | 0.8 (≈ 1.03 µM) | 0.2 (≈ 0.258 µM) | 0.4 (≈ 0.517 µM) | ≤ 0.05 | MIC ([3]; TPR23, Staphylococcus aureus TPR 23, strain resistant to erythromycin, agar plate dilution, read-out: MIC value (minimal inhibitory concentration)): 3.1 µg/mL (≈ 4.01 µM) |
| CC[C@H]1OC(=O)[C@H](C)[C@@H](O[C@H]2C[C@@](C)(OC)[C@@H](O)[C@H](C)O2)[C@H](C)[C@@H](O[C@@H]2O[C@H](C)C[C@H](N(C)C)[C@H]2O)[C@](C)(O)C[C@@H](C)C(=O)[C@H](C)[C@@H](O)[C@]1(C)O [Erythromycin A] | > 100 |  |  |  |  |  |  |  |  | MIC (Micrococcus luteus NIHJ; Micrococcus luteus): < 0.05 µg/mL; MIC ([1]; FDA209, read-out: MIC value (minimal inhibitory concentration)): ≤ 0.05 µg/mL; MIC ([2]; TPR13, read-out: MIC value (minimal inhibitory concentration)): 25 µg/mL (≈ 34.1 µM); MIC ([3]; TPR23, read-out: MIC value (minimal inhibitory concentration)): 100 µg/mL (≈ 136 µM); MIC ([4]; TPR25, read-out: MIC value (minimal inhibitory concentration)): 50 µg/mL (≈ 68.1 µM); MIC [5]: 0.2 µg/mL (≈ 0.273 µM); MIC ([6]; IID866, read-out: MIC value (minimal inhibitory concentration)): 0.4 µg/mL (≈ 0.545 µM); MIC ([7]; ATCC8043, read-out: MIC value (minimal inhibitory concentration)): ≤ 0.05 µg/mL |
